Experimental findings from publication PMC5011342, “A high throughput drug screening assay to identify compounds that promote oligodendrocyte differentiation using acutely dissociated and purified oligodendrocyte precursor cells” (BMC Research Notes, 2016) are described below.

Where a name gives a salt, the structure may show the parent alone. Read-outs that look alike come from different tables or passages of the source.

The test system of data set [1] is acutely dissociated and purified rat OPCs. Nature of the data set: Acute OL differentiation assay (MBP expression/cell, immunofluorescent image quantification). It counts as cell-based. Conditions: Rattus norvegicus, sheet "All OLga data"; for activation at 0.08 µM: test compound at 0.08 uM, read-out: 0.08 uM (% Quet). An outline of the steps:
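This acute differentiation assay used purified rat OPCs from postnatal day 6–7 pups, seeded into PDL/laminin-coated 96-well plates in differentiation medium lacking PDGF and FGF. Compounds were applied in quadruplicate after a 1–2 h preincubation at 37 °C, 10 % CO2, with 0.1 % DMSO negative and 40 ng/ml T3 positive controls in eight wells. After fixation on DIV4, anti-MBP immunofluorescence images yielded MBP expression/cell.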

The next data set concerns expanded OPCs. Nature of the data set: cells. Conditions: for 0.1 µM (% DMSO) / 1 µM (% DMSO) / 10 µM (% DMSO): alamarBlue viability of expanded OPCs, relative to DMSO control; for 0.1 µM (% DMSO): compound at 0.1 µM; for 1 µM (% DMSO): compound at 1 µM; for 10 µM (% DMSO): compound at 10 µM; for viability at 0.1 µM / viability at 1 µM / viability at 10 µM: Rattus norvegicus, 72 h. An outline of the steps:
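Toxicity screen: compounds added at 0.1, 1 and 10 µM to PDGF-AA-expanded OPCs in 96-well plates, 3-day incubation at 37 °C, 10% CO2, then alamarBlue 1:10 for 4 h with fluorescence readout. Results set screening doses of 10/2, 2/0.4 or 0.4/0.08 µM.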

Setting [2] is: MBP expression relative to quetiapine, NCC library screen.
[3] abbreviates: test compound at 0.4 uM, MBP expression relative to quetiapine, NCC library screen, read-out: 0.4 uM (% Quet).
Setting [4] is: test compound at 2 uM, MBP expression relative to quetiapine, NCC library screen, read-out: 2 uM (% Quet).
[5] abbreviates: 2 uM test compound, relative to quetiapine, read-out: OL differentiation, 2 uM (% Quet).
[6] abbreviates: read-out: 0.1 µM (% DMSO), alamarBlue viability of expanded OPCs, compound at 0.1 µM, sheet All Tox data.
Setting [7] is: read-out: 1 µM (% DMSO), alamarBlue viability of expanded OPCs, compound at 1 µM, sheet All Tox data.
Where [8] appears, read: read-out: 10 µM (% DMSO), alamarBlue viability of expanded OPCs, compound at 10 µM, sheet All Tox data.
[9] abbreviates: test compound at 10 uM, MBP expression relative to quetiapine, NCC library screen, read-out: 10 uM (% Quet).
The mark [10] stands for this setting: 10 uM test compound, relative to quetiapine, read-out: OL differentiation, 10 uM (% Quet).
[11] abbreviates: test compound at 2 uM, NCC library screen, relative to quetiapine, read-out: 2 uM (% Quet).
Setting [12] is: read-out: 0.1 µM (% DMSO), alamarBlue viability, NCC library compound at 0.1 µM, sheet "All Tox data".
Where [13] appears, read: read-out: 1 µM (% DMSO), alamarBlue viability, NCC library compound at 1 µM, sheet "All Tox data".
Setting [14] is: read-out: 10 µM (% DMSO), alamarBlue viability, NCC library compound at 10 µM, sheet "All Tox data".

Regarding `O=C(NCC1CCCCN1)c1cc(OCC(F)(F)F)ccc1OCC(F)(F)F` (centres unmarked) [Flecainide], the activation at 0.08 µM in data set [1] (setting [2]) was 2.3%. Moreover, in the data set on expanded OPCs, the “0.1 µM (% DMSO)” value came out at 64.1 % DMSO, the “1 µM (% DMSO)” value is 9.0 % DMSO and the “10 µM (% DMSO)” value amounted to 7.7 % DMSO.

As to `O=c1[nH]c(=O)n([C@H]2C[C@H](O)[C@@H](CO)O2)cc1F` [Floxuridine], the activation at 0.4 µM in data set [1] (setting [3]) is -13.5%. Besides, the activation at 2 µM in data set [1] (setting [4]) was -23.6%. Besides, in the data set on expanded OPCs, the “0.1 µM (% DMSO)” value is reported as 65.0 % DMSO, the “1 µM (% DMSO)” value turned out to be 64.9 % DMSO and the “10 µM (% DMSO)” value is 67.9 % DMSO.

On to `COC(=O)Nc1nc2cc(C(=O)c3ccc(F)cc3)ccc2[nH]1` [Flubendazole], for which the activation at 0.4 µM in data set [1] (0.4 uM test compound, relative to quetiapine, read-out: OL differentiation, 0.4 uM (% Quet)) is -62.9%. Also, the activation at 2 µM in data set [1] (setting [5]) is -188%. In the data set on expanded OPCs (setting [6]), the viability at 0.1 µM is 74.4%. Further, the viability at 1 µM in the data set with expanded OPCs (setting [7]) came out at 69.3%. The viability at 10 µM in the data set with expanded OPCs (setting [8]) was 43.7%.

Consider `OC(Cn1cncn1)(Cn1cncn1)c1ccc(F)cc1F` [Fluconazole], for which, in data set [1] (setting [4]), the activation at 2 µM was determined as 0.9%. Also, the activation at 10 µM in data set [1] (setting [9]) is -44.2%. In the data set with expanded OPCs, the “0.1 µM (% DMSO)” value amounted to 89.6 % DMSO, the “1 µM (% DMSO)” value is on record as 88.1 % DMSO and the “10 µM (% DMSO)” value came out at 92.1 % DMSO.

Turning to `Nc1[nH]c(=O)ncc1F` [Flucytosine], in data set [1] (setting [5]), the activation at 2 µM was -1.1%. Further, the activation at 10 µM in data set [1] (setting [10]) is -1%. Besides, in the data set with expanded OPCs (setting [6]), the viability at 0.1 µM was 98.2%. The viability at 1 µM in the data set on expanded OPCs (setting [7]) is 90.7%. For the same compound, the viability at 10 µM with expanded OPCs (setting [8]) came out at 99.4%.

Take `Nc1nc(F)nc2c1ncn2[C@@H]1O[C@H](CO)[C@@H](O)[C@@H]1O` [Fludarabine]: the activation at 2 µM in data set [1] (setting [4]) was 18.7%. Also, in data set [1] (setting [9]), the activation at 10 µM was -12.6%. For the same compound, in the data set with expanded OPCs, the “0.1 µM (% DMSO)” value was determined as 91.2 % DMSO, the “1 µM (% DMSO)” value stood at 88.7 % DMSO and the “10 µM (% DMSO)” value is given as 77.9 % DMSO.

Regarding `CCOC(=O)c1ncn2c1CN(C)C(=O)c1cc(F)ccc1-2` [Flumazenil], in data set [1] (setting [5]), the activation at 2 µM is -7.2%. Further, the activation at 10 µM in data set [1] (setting [10]) was -31.7%. The viability at 0.1 µM in the data set on expanded OPCs (setting [6]) came to 84.8%. Besides, the viability at 1 µM in the data set with expanded OPCs (setting [7]) was 88.2%. Also, the viability at 10 µM in the data set with expanded OPCs (setting [8]) amounted to 95.5%.

Regarding `CC1(C)O[C@@H]2C[C@H]3[C@@H]4C[C@H](F)C5=CC(=O)C=C[C@]5(C)[C@@]4(F)[C@@H](O)C[C@]3(C)[C@]2(C(=O)CO)O1` [Fluocinolone Acetonide], in data set [1] (setting [11]), the activation at 2 µM stood at 12.9%. For the same compound, the activation at 10 µM in data set [1] (test compound at 10 uM, NCC library screen, relative to quetiapine, read-out: 10 uM (% Quet)) came to 9.2%. Moreover, the viability at 0.1 µM in the data set with expanded OPCs (setting [12]) was determined as 116%. The viability at 1 µM in the data set with expanded OPCs (setting [13]) was 118%. The viability at 10 µM in the data set with expanded OPCs (setting [14]) worked out at 111%.

For the compound `CC(=O)OCC(=O)[C@@]12OC(C)(C)O[C@@H]1C[C@H]1[C@@H]3C[C@H](F)C4=CC(=O)C=C[C@]4(C)[C@@]3(F)[C@@H](O)C[C@@]12C` [Fluocinonide], the activation at 2 µM in data set [1] (setting [4]) was determined as 12.4%. The activation at 10 µM in data set [1] (setting [9]) was -24.4%. Besides, in the data set with expanded OPCs, the “0.1 µM (% DMSO)” value amounted to 108.3 % DMSO, the “1 µM (% DMSO)” value is 102.9 % DMSO and the “10 µM (% DMSO)” value came out at 80.4 % DMSO.

As to `CC(=O)[C@@]1(O)CC[C@H]2[C@@H]3C[C@H](C)C4=CC(=O)C=C[C@]4(C)[C@@]3(F)[C@@H](O)C[C@@]21C` [Fluorometholone], the activation at 2 µM in data set [1] (setting [4]) is 9.3%. Further, the activation at 10 µM in data set [1] (setting [9]) is -24.3%. In the data set with expanded OPCs, the “0.1 µM (% DMSO)” value came to 112.5 % DMSO, the “1 µM (% DMSO)” value turned out to be 98.3 % DMSO and the “10 µM (% DMSO)” value is on record as 86.2 % DMSO.

As for `CNCCC(Oc1ccc(C(F)(F)F)cc1)c1ccccc1` (centres unmarked) [Fluoxetine hydrochloride], the activation at 0.08 µM in data set [1] (setting [2]) amounted to 13%. In addition, in data set [1] (setting [3]), the activation at 0.4 µM came to 10.7%. Besides, in the data set on expanded OPCs, the “0.1 µM (% DMSO)” value turned out to be 77.4 % DMSO, the “1 µM (% DMSO)” value is 42.2 % DMSO and the “10 µM (% DMSO)” value is recorded as 7.9 % DMSO.

Consider `CN1CCN(C2=Nc3cc(F)ccc3Cc3ccccc32)CC1` [Fluperlapine], for which the activation at 0.4 µM in data set [1] (test compound at 0.4 uM, NCC library screen, relative to quetiapine, read-out: 0.4 uM (% Quet)) is -10.3%. Also, the activation at 2 µM in data set [1] (setting [11]) is -16.2%. For the same compound, in the data set on expanded OPCs (setting [12]), the viability at 0.1 µM came out at 78.1%. The viability at 1 µM in the data set on expanded OPCs (setting [13]) was 64.8%. In addition, the viability at 10 µM with expanded OPCs (setting [14]) was 32.2%.
